{"source": "paper PMC11171525", "about": "(Cells, 2024)", "key": {"PpCM1": {"test_system": "PpCM1", "assay": "CM activity assay, recombinant PpCM1 (disappearance of chorismate at 274 nm)", "assay_type": "biochemical, Pinus pinaster", "settings": "for impact on activity (activation or inhibition), effector screening: threshold […] (Figure S2)", "procedure": "(§1) Similarly, the effect on CM activity of decreasing concentrations of the amino acids Phe, Tyr, and Trp was determined.\n(§2) To study their catalytic properties, P. pinaster PpCM1 and PpCM2 were functionally expressed in E. coli, including N-terminal His-tags, lacking the predicted chloroplast signal peptides, and were subsequently purified with Ni^2+-affinity chromatography."}, "PpCM2": {"test_system": "PpCM2", "assay": "CM activity assay, recombinant PpCM2 (disappearance of chorismate at 274 nm)", "assay_type": "biochemical, Pinus pinaster", "settings": "for impact on activity (activation or inhibition), effector screening: threshold […] (Figure S2)", "procedure": "as §1, §2"}, "CMs from mosses": {"test_system": "CMs from mosses", "settings": "substrate chorismate; ref [30]; cited from earlier work"}, "CMs from lycophytes": {"test_system": "CMs from lycophytes", "settings": "substrate chorismate; ref [30]; cited from earlier work"}, "[1]": {"settings": "2 mM amino acid, 1 mM chorismate"}, "[2]": {"settings": "substrate chorismate, 50 mM Tris pH 8, 30 °C"}, "[3]": {"settings": "substrate chorismate, turnover rate"}, "[4]": {"settings": "inhibition of CM activity by Phe, read-out: EC50 (Phe)"}, "[5]": {"settings": "activation of CM activity by Trp, read-out: EC50 (Trp)"}}, "note": "Read-outs that look alike come from different tables or passages of the source.", "data": [{"smiles": "N[C@@H](Cc1ccc(O)cc1)C(=O)O", "note": "[Tyr, tyrosine]", "values": [{"measurement": "reduction in activity compared to controls", "setting": "PpCM1; [1]", "value": 11.4, "unit": "fold"}, {"measurement": "impact on activity (activation or inhibition), effector screening", "setting": "PpCM1; 2 mM amino acid", "value": "> 1.5", "unit": "fold"}, {"measurement": "reduction in activity compared to controls", "setting": "PpCM2; [1]", "value": 10.1, "unit": "fold"}, {"measurement": "impact on activity (activation or inhibition), effector screening", "setting": "PpCM2; 2 mM amino acid", "value": "> 1.5", "unit": "fold"}]}, {"smiles": "C=C(O[C@@H]1C=C(C(=O)O)C=C[C@H]1O)C(=O)O", "note": "[chorismate]", "values": [{"measurement": "Kcat", "setting": "CMs from mosses", "value": "19.5 to 20.7", "unit": "s⁻¹"}, {"measurement": "Km", "setting": "PpCM1; [2]", "value": 1600, "unit": "µM"}, {"measurement": "Kcat", "setting": "PpCM1; [3]", "value": 29.4, "unit": "s⁻¹"}, {"measurement": "Km", "setting": "PpCM2; [2]", "value": 1700, "unit": "µM"}, {"measurement": "Kcat", "setting": "PpCM2; [3]", "value": 35, "unit": "s⁻¹"}, {"measurement": "Kcat", "setting": "CMs from lycophytes", "value": 18.8, "unit": "s⁻¹"}]}, {"smiles": "N[C@@H](Cc1ccccc1)C(=O)O", "note": "[Phe, phenylalanine]", "values": [{"measurement": "reduction in activity compared to controls", "setting": "PpCM1; [1]", "value": 9.6, "unit": "fold"}, {"measurement": "impact on activity (activation or inhibition), effector screening", "setting": "PpCM1; 2 mM amino acid", "value": "> 1.5", "unit": "fold"}, {"measurement": "EC50", "setting": "PpCM1; [4]", "value": 36, "unit": "µM"}, {"measurement": "reduction in activity compared to controls", "setting": "PpCM2; [1]", "value": 3, "unit": "fold"}, {"measurement": "impact on activity (activation or inhibition), effector screening", "setting": "PpCM2; 2 mM amino acid", "value": "> 1.5", "unit": "fold"}, {"measurement": "retained activity", "setting": "PpCM2; in the presence of 2 mM Phe", "value": "30–35%"}, {"measurement": "EC50", "setting": "PpCM2; [4]", "value": 88, "unit": "µM"}]}, {"smiles": "N[C@@H](Cc1c[nH]c2ccccc12)C(=O)O", "note": "[Trp, tryptophan]", "values": [{"measurement": "increase in activity", "setting": "PpCM1; [1]", "value": 3.1, "unit": "fold"}, {"measurement": "impact on activity (activation or inhibition), effector screening", "setting": "PpCM1; 2 mM amino acid", "value": "> 1.5", "unit": "fold"}, {"measurement": "EC50", "setting": "PpCM1; [5]", "value": "~0.1", "unit": "µM"}, {"measurement": "increase in activity", "setting": "PpCM2; [1]", "value": 1.7, "unit": "fold"}, {"measurement": "impact on activity (activation or inhibition), effector screening", "setting": "PpCM2; 2 mM amino acid", "value": "> 1.5", "unit": "fold"}, {"measurement": "EC50", "setting": "PpCM2; [5]", "value": "~0.1", "unit": "µM"}]}]}
